In the test the target is T1, Recombinant human cathepsin A (Homo sapiens, UniProt P10619).
T1 construct: Recombinant human cathepsin A (residues 29-480, with a C-terminal 10-His tag); 10-His (C); purchased R&D Systems 1049-SE
T1 sequence (P10619 29-326 limits assumed): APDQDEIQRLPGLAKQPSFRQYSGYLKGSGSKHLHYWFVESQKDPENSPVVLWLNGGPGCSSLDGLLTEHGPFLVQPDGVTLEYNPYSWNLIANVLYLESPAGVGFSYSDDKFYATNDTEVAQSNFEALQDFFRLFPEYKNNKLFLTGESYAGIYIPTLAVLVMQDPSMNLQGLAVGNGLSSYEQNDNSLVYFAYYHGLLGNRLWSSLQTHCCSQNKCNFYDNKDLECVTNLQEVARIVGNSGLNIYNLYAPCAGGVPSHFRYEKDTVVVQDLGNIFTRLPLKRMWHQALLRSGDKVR
T1 sequence (P10619 327-480 limits assumed): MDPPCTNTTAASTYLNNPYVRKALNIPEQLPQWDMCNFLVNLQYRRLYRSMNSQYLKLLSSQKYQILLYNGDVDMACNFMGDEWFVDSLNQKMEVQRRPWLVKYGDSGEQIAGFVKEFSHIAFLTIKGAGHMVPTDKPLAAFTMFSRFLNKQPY
Put plainly: Cathepsin A inhibitory activity. Type of test: biochemical. The following applies: activated recombinant human cathepsin A 833 ng/ml, Bodipy FL-labeled bradykinin substrate 2 μM, pH 5.5, room temperature. The procedure: a) Cathepsin A Inhibitory Activity
Recombinant human cathepsin A (residues 29-480, with a C-terminal 10-His tag; R&D Systems, #1049-SE) was proteolytically activated with recombinant human cathepsin L (R&D Systems, #952-CY). Briefly, cathepsin A was incubated at 10 μg/ml with cathepsin L at 1 μg/ml in activation buffer (25 mM 2-(morpholin-4-yl)-ethanesulfonic acid (MES), pH 6.0, containing 5 mM dithiothreitol (DTT)) for 15 min at 37° C. Cathepsin L activity was then stopped by the addition of the cysteine protease inhibitor E-64 (N-(trans-epoxysuccinyl)-L-leucine-4-guanidinobutylamide; Sigma-Aldrich, # E3132; dissolved in activation buffer/DMSO) to a final concentration of 10 μM.
The activated cathepsin A was diluted in assay buffer (25 mM MES, pH 5.5, containing 5 mM DTT) and mixed with the test compound (dissolved in assay buffer containing (v/v) 3% DMSO) or, in the control experiments, with the vehicle in a multiple assay plate. After incubation for 15 min at room temperature, as substrate then bradykinin carrying an N-terminal ®Bodipy FL (4,4-difluoro-5,7-dimethyl-4-bora-3a,4a-diaza-s-indacene-3-propionyl) label (JPT Peptide Technologies GmbH; dissolved in assay buffer) was added to the mixture. The final concentration of cathepsin A was 833 ng/ml and the final concentration of labeled bradykinin 2 μM. After incubation for 15 min at room temperature the reaction was stopped by the addition of stop buffer (130 mM 2-(4-(2-hydroxy-ethyl)-piperazin-1-yl)-ethanesulfonic acid, pH 7.4, containing (v/v) 0.013% ®Triton X-100, 0.13% Coating Reagent 3 (Caliper Life Sciences), 6.5% DMSO and 20 μM ebelactone B (Sigma, # E0886)).
Uncleaved substrate and product were then separated by a microfluidic capillary electrophoresis on a LabChip® 3000 Drug Discovery System (12-Sipper-Chip; Caliper Life Sciences) and quantified by determination of the respective peak areas. Substrate turnover was calculated by dividing product peak area by the sum of substrate and product peak areas, and the enzyme activity and the inhibitory effect of the test compound thus quantified. From the percentage of inhibition of cathepsin A activity observed with the test compound at several concentrations, the inhibitory concentration IC50, i.e. the concentration which effects 50% inhibition of enzyme activity was, calculated.

Broadly, the IC50 is the midpoint of a concentration-inhibition curve.

As for `O=C(O)C[C@@H](Cc1ccccc1)NC(=O)c1nc(-c2ccccc2)cs1` [Example 1, (R)-4-Phenyl-3-[(4-phenyl-thiazole-2-carbonyl)-amino]-butyric acid], the IC50 is 1710 nM.

For `O=C(O)CC(NC(=O)c1csc(-c2ccccc2)n1)c1ccc(-c2ccc(F)cc2)cc1` (stereo not drawn) [Example 2, 3-(4′-Fluoro-biphenyl-4-yl)-3-[(2-phenyl-thiazole-4-carbonyl)-amino]-propionic acid], the IC50 is over 10000 nM. The figure for `Cc1cccc([C@H](CC(=O)O)NC(=O)c2nc(-c3ccccc3)cs2)c1` [Example 3, (S)-3-[(4-Phenyl-thiazole-2-carbonyl)-amino]-3-m-tolyl-propionic acid] is 315 nM. The figure for `C[C@@](CC(=O)O)(NC(=O)c1nc(-c2ccccc2)cs1)c1ccccc1` [Example 4, (S)-3-Phenyl-3-[(4-phenyl-thiazole-2-carbonyl)-amino]-butyric acid] is over 10000 nM; for `COc1ccc(-c2nc(C(=O)N[C@@H](CC(=O)O)c3ccccc3C)cs2)cc1` [Example 5, (S)-3-{[2-(4-Methoxy-phenyl)-thiazole-4-carbonyl]-amino}-3-o-tolyl-propionic acid] it is 368 nM; for `Cc1cc(C)n(-c2nc(C(=O)N[C@@H](CC(=O)O)c3ccccc3C)cs2)n1` [Example 6, (S)-3-{[2-(3,5-Dimethyl-pyrazol-1-yl)-thiazole-4-carbonyl]-amino}-3-o-tolyl-propionic acid] it is over 10000 nM. As for `Cc1ccccc1[C@H](CC(=O)O)NC(=O)c1csc(-c2ccncc2)n1` [Example 7, (S)-3-[(2-Pyridin-4-yl-thiazole-4-carbonyl)-amino]-3-o-tolyl-propionic acid], the figure is 805 nM. On to `Cc1ccccc1[C@H](CC(=O)O)NC(=O)c1csc(-c2cnccn2)n1` [Example 8, (S)-3-[(2-Pyrazin-2-yl-thiazole-4-carbonyl)-amino]-3-o-tolyl-propionic acid], for which the IC50 was 2630 nM. The figure for `Cc1cc(C(F)(F)F)n(-c2nc(C(=O)N[C@@H](CC(=O)O)c3ccccc3C)cs2)n1` [Example 9, (S)-3-{[2-(3-Methyl-5-trifluoromethyl-pyrazol-1-yl)-thiazole-4-carbonyl]-amino}-3-o-tolyl-propionic acid] is 3590 nM; for `Cc1ccc(-c2nc(C(=O)N[C@@H](CC(=O)O)c3ccccc3C)cs2)cc1` [Example 10, (S)-3-o-Tolyl-3-[(2-p-tolyl-thiazole-4-carbonyl)-amino]-propionic acid] it is 187 nM; for `Cc1ccc([C@H](CC(=O)O)NC(=O)c2nc(-c3ccccc3)cs2)cc1` [Example 11, (S)-3-[(4-Phenyl-thiazole-2-carbonyl)-amino]-3-p-tolyl-propionic acid] it is 404 nM. The figure for `Cc1ccccc1-c1nc(C(=O)N[C@@H](CC(=O)O)c2cccc(Cl)c2Cl)cs1` [Example 12, (S)-3-(2,3-Dichloro-phenyl)-3-[(2-o-tolyl-thiazole-4-carbonyl)-amino]-propionic acid] is 85 nM. The figure for `O=C(O)C[C@H](NC(=O)c1csc(-c2ccccc2)n1)c1cccc(Cl)c1Cl` [Example 13, (S)-3-(2,3-Dichloro-phenyl)-3-[(2-phenyl-thiazole-4-carbonyl)-amino]-propionic acid] is 176 nM; for `O=C(O)C[C@H](NC(=O)c1csc(-c2cccc(Cl)c2Cl)n1)c1cccc(Cl)c1Cl` [Example 14, (S)-3-(2,3-Dichloro-phenyl)-3-{[2-(2,3-dichloro-phenyl)-thiazole-4-carbonyl]-amino}-propionic acid] it is 159 nM; for `O=C(O)C[C@H](NC(=O)c1csc(-c2ccccc2F)n1)c1cccc(Cl)c1Cl` [Example 15, (S)-3-(2,3-Dichloro-phenyl)-3-{[2-(2-fluoro-phenyl)-thiazole-4-carbonyl]-amino}-propionic acid] it is 209 nM. In the case of `O=C(O)C[C@H](NC(=O)c1csc(-c2ccc(C(F)(F)F)cc2)n1)c1cccc(Cl)c1Cl` [Example 16, (S)-3-(2,3-Dichloro-phenyl)-3-{[2-(4-trifluoromethyl-phenyl)-thiazole-4-carbonyl]-amino}-propionic acid], the IC50 was 3020 nM. As to `COc1cccc([C@H](CC(=O)O)NC(=O)c2csc(-c3ccccc3C)n2)c1OC` [Example 17, (S)-3-(2,3-Dimethoxy-phenyl)-3-[(2-o-tolyl-thiazole-4-carbonyl)-amino]-propionic acid], the IC50 was 242 nM. The figure for `COc1cccc([C@H](CC(=O)O)NC(=O)c2csc(-c3ccccc3)n2)c1OC` [Example 18, (S)-3-(2,3-Dimethoxy-phenyl)-3-[(2-phenyl-thiazole-4-carbonyl)-amino]-propionic acid] is 498 nM; for `COc1cccc([C@H](CC(=O)O)NC(=O)c2csc(-c3ccccc3F)n2)c1OC` [Example 19, (S)-3-(2,3-Dimethoxy-phenyl)-3-{[2-(2-fluoro-phenyl)-thiazole-4-carbonyl]-amino}-propionic acid] it is 875 nM; for `COc1cccc([C@H](CC(=O)O)NC(=O)c2csc(-c3ccc(C(F)(F)F)cc3)n2)c1OC` [Example 20, (S)-3-(2,3-Dimethoxy-phenyl)-3-{[2-(4-trifluoromethyl-phenyl)-thiazole-4-carbonyl]-amino}-propionic acid] it is 6340 nM.

For `Cc1ccccc1-c1nc(C(=O)N[C@@H](CC(=O)O)c2ccc(Cl)cc2Cl)cs1` [Example 21, (S)-3-(2,4-Dichloro-phenyl)-3-[(2-o-tolyl-thiazole-4-carbonyl)-amino]-propionic acid], the IC50 was 886 nM. As for `O=C(O)C[C@H](NC(=O)c1csc(-c2ccccc2)n1)c1ccc(Cl)cc1Cl` [Example 22, (S)-3-(2,4-Dichloro-phenyl)-3-[(2-phenyl-thiazole-4-carbonyl)-amino]-propionic acid], the figure is 544 nM; as for `O=C(O)C[C@H](NC(=O)c1csc(-c2cccc(Cl)c2Cl)n1)c1ccc(Cl)cc1Cl` [Example 23, (S)-3-(2,4-Dichloro-phenyl)-3-{[2-(2,3-dichloro-phenyl)-thiazole-4-carbonyl]-amino}-propionic acid], 555 nM; as for `O=C(O)C[C@H](NC(=O)c1csc(-c2ccccc2F)n1)c1ccc(Cl)cc1Cl` [Example 24, (S)-3-(2,4-Dichloro-phenyl)-3-{[2-(2-fluoro-phenyl)-thiazole-4-carbonyl]-amino}-propionic acid], 1070 nM. The figure for `O=C(O)C[C@H](NC(=O)c1csc(-c2ccc(C(F)(F)F)cc2)n1)c1ccc(Cl)cc1Cl` [Example 25, (S)-3-(2,4-Dichloro-phenyl)-3-{[2-(4-trifluoromethyl-phenyl)-thiazole-4-carbonyl]-amino}-propionic acid] is 6370 nM; for `Cc1ccccc1-c1nc(C(=O)N[C@@H](CC(=O)O)c2ccccc2Cl)cs1` [Example 26, (S)-3-(2-Chloro-phenyl)-3-[(2-o-tolyl-thiazole-4-carbonyl)-amino]-propionic acid] it is 149 nM. On to `O=C(O)C[C@H](NC(=O)c1csc(-c2ccccc2)n1)c1ccccc1Cl` [Example 27, (S)-3-(2-Chloro-phenyl)-3-[(2-phenyl-thiazole-4-carbonyl)-amino]-propionic acid], for which the IC50 is 217 nM.

(Values after patent publication US9174952B2, “Substituted 3-thiazoloamino-propionic acid derivatives and their use as pharmaceuticals” (SANOFI, priority 2011, dated 2015).)
